Assay results published in article PMC12624573, “The antigen presentation landscape of cytokine-stressed human pancreatic islets” (Cell reports, 2025).

Tested on: CD8+ T cells from PBMC
Assay: IFN-γ ELISpot, PBMC-derived in vitro expanded CD8+ T cell lines
Type: cell-based, human
Set-up: key to T cell recognition by PBMC from a T1D donor: E: T cell recognition by PBMC from a T1D donor was tested and verified; see Figure 5
Details: not given

Row | Substance | IFN-γ ELISpot response of expanded CD8+ T cells
1 | TLDGSLHAV [peptide 79, 11] | Responses

Same assay, conditions: A2 Set Peptides; PBMC T cell lines; responding donors/donors tested

Row | Substance | T1D Donor T cell response | non-T1D Donor T cell response
2 | RYLEQLHQL [compound 135, 17] | 0/4 | 0/2
3 | SLAEGLRTV [compound 120, 16] | 0/4 | 0/2
4 | SLIGHLQTL [compound 95, 13] | 1/4 | 0/2
5 | SLLQGSPHL [compound 122, 16] | 0/4 | 0/2
6 | TLDGSLHAV [peptide 79, 11] | 1/5 | 0/2
7 | TLVEAIKQV [compound 113, 15] |  | 0/2
8 | VIANEIEKV [compound 88, 12] | 0/5 | 0/2
9 | VLAPRVLRA [compound 126, 16] | 0/4 | 0/2
10 | VLHEGTNFV [compound 104, 14] | 0/4 | 0/2
11 | YINEKNVAL [compound 105, 14] | 0/4 | 0/2
12 | YLHSQVVSV [compound 139, 18] | 0/4 | 0/2
13 | YLKHRLIVV [compound 134, 17] | 0/4 | 0/2
14 | YLLEKNRVV [compound 117, 15] | 0/4 | 0/2
15 | YLLEKSRVV [compound 118, 15] | 0/4 | 0/2

Same assay, conditions: HPAP-A2 Pool Peptides; PBMC T cell lines; responding donors/donors tested

Row | Substance | T1D Donor T cell response | non-T1D Donor T cell response
16 | TAISRIYTV [compound 158] | 0/4 | 0/4
17 | VLAFLVHEL [compound 156] | 1/5 | 0/4

Same assay, conditions: MHC-I peptides; superscript E on the peptide; F = verified with C1R-A2 cells

Row | Substance | T cell recognition by PBMC from a T1D donor
18 | SLIGHLQTL | SLIGHLQTL ^ E
19 | TLDGSLHAV | TLDGSLHAV ^ E

Tested on: CD4+ T cells from PBMC
Assay: IFN-γ ELISpot, PBMC-derived in vitro expanded CD4+ T cell lines
Type: cell-based, human
Set-up: key to T cell recognition by PBMC from a T1D donor (mark E) / T cell recognition by PBMC from a T1D donor: E: T cell recognition by PBMC from a T1D donor was tested and verified; see Figure 5
Details: DR3/DQ Set Peptides; PBMC T cell lines; responding donors/donors tested

Row | Substance | T1D Donor T cell response | non-T1D Donor T cell response
20 | AELEDDFKEGYLE [peptide 2] | 2/4 | 1/2
21 | APGYLAITKKVAVPY [compound 30] | 3/4 | 1/2
22 | DDALVRQDAQDLYEAG [compound 9] | 0/4 | 0/2
23 | DLNGDLTATREEF [compound 5] | 0/4 | 0/2
24 | EDYYVSKSAVVFGG [compound 28] | 2/4 | 1/2
25 | ELSAERPLNEQIAEAE [peptide 32] | 1/4 | 0/2
26 | ETDKEQLTAEAKELRQK [peptide 6] | 1/4 | 0/2
27 | FQYIIDNKGIDSDAS [compound 31] | 1/4 | 0/2
28 | GKRAIILETRQHRLF [peptide 1] | 0/4 | 0/2
29 | GREEITYDTPFKREKS [compound 16] | 3/4 | 0/2
30 | GSDDWAYDQGIRYS [compound 21] | 3/4 | 0/2
31 | GVSDQSFQVEEAKRIKQ [compound 25] | 0/4 | 0/2
32 | IDQINTDLNLERSHA [compound 17] | 0/4 | 0/2

Same assay, conditions: HPAP-DR3 Pool Peptides; PBMC T cell lines; responding donors/donors tested

Row | Substance | T1D Donor T cell response | non-T1D Donor T cell response
33 | APGYLAITKKVAVPY [compound 151] | 0/4 | 1/4
34 | GFPTIYFSPANKKLNPK [compound 154] | 0/4 | 0/4
35 | IDSLIELSTKLHLPADD [compound 153] | 0/4 | 0/4

Same assay, conditions: MHC-II peptides; superscript E on the peptide; G = verified with QBL cells

Row | Substance | T cell recognition by PBMC from a T1D donor
36 | AVPEEEGPTVVLXPHPSLG [AVPEEEGPTVVLXPHPSLG (X=deamindated N=asp)] | AVPEEEGPTVVLXPHPSLG^E,G (X=deamindated N=asp)
37 | AVPEEEGPTVVLXPHPSLG [AVPEEEGPTVVLXPHPSLG (X=deamindated N=isoasp)] | AVPEEEGPTVVLXPHPSLG^E,G (X=deamindated N=isoasp)

Same assay, conditions: MHC-II peptides; tested and verified, see Figure 5

Row | Substance | T cell recognition by PBMC from a T1D donor (mark E)
38 | AELEDDFKEGYLE | AE LEDDFKEGY LE ^ E
39 | APGY LAITKKVAV PY | E
40 | EDYYVSKSAVVFGG | ED YYVSKSAVV FGG ^ E
41 | ELSAERPLNEQIAEAE | ELSAERP LNEQIAEAE ^ E
42 | ETDKEQLTAEAKELRQK | ETDKEQ LTAEAKELR QK ^ E
43 | FQYIIDNKGIDSDAS | FQ YIIDNKGID SDAS ^ E
44 | GREEITYDTPFKREKS | GREE ITYDTPFKR EKS ^ E
45 | GSDDWAYDQGIRYS | GSDD WAYDQGIRY S ^ E

Same assay, conditions: PTM and unmodified native Pool Peptides (pool PTM 1), long peptides; PBMC T cell lines; responding donors/donors tested

Row | Substance | T1D Donor T cell response | non-T1D Donor T cell response
46 | AEDLQVGEVELGGGPGAGSLQPL [145-1, PTM peptide, E=deamidated Q=glutamic acid, pool PTM DR3] | 0/4 | 0/4
47 | AEDLQVGQVELGGGPGAGSLQPL [compound 145, non-modified native peptide, pool PTM DR3] | 0/4 | 0/4
48 | AVPEEEGPTVVLNPHPSLG [peptide 148, non-modified native peptide from CHGA, pool PTM DR3] | 0/4 | 0/4
49 | ELSAERPLNEQIAEAE [compound 144, non-modified native peptide, pool PTM DR3] | 0/4 | 0/4
50 | ELXAERPLNEQIAEAE [144-1, PTM peptide, X=dehydroS=dehydroAla, pool PTM DR3] | 0/4 | 0/4
51 | GSHLVEALYLVCGEXGF [146-2] | 0/4 | 0/4

Same assay, conditions: SEC (Secretory) DR3 Peptides Set; PBMC T cell lines; responding donors/donors tested

Row | Substance | T1D Donor T cell response | non-T1D Donor T cell response
52 | AAIQDGLAKGENDETVSNT [compound 190, secretory hormone eluted peptide, pool SEC DR3] | 0/4 | 0/4
53 | DDPDGLHQLDGTPLTAED [compound 189, secretory hormone eluted peptide from SCG3, pool SEC DR3] | 0/4 | 1/4
54 | DNMNDNFLEGEEENELTLN [compound 185, secretory hormone eluted peptide, pool SEC DR3] | 0/4 | 0/4
55 | ELSAERPLNEQIAEAE [compound 186, secretory hormone eluted peptide from SCG3, pool SEC DR3] | 0/4 | 1/4
56 | GRGGEPRAYFMSDTREE [compound 183, secretory hormone eluted peptide, pool SEC DR3] | 0/4 | 0/4
57 | GSEEYRAPRPQSEESWDEED [compound 181, secretory hormone eluted peptide, pool SEC DR3] | 0/4 | 1/4
58 | HPQGAWKELDRNY [compound 184, secretory hormone eluted peptide from SCG1, pool SEC DR3] | 0/4 | 1/4

Same assay, conditions: T1D donors, PBMC-derived lines (Figure 5J)

Row | Substance | Number of donors whose CD4 T cells recognized the peptide (IFN-γ ELISpot)
59 | AELEDDFKEGYLE [peptide 2] | three of the donors
60 | APGYLAITKKVAVPY [compound 30] | three of the donors
61 | GREEITYDTPFKREKS [compound 16] | three of the donors

Same assay, conditions: control donor LSLP-074; frequencies ∼10-fold lower than for T1D-004 (Figures 5E, 5F, S5B)

Row | Substance | IFN-γ ELISpot response of expanded CD4+ T cells
62 | AELEDDFKEGYLE [peptide 2] | responded

Same assay, conditions: control donor LSLP-153; line expanded with megapool HPAP-DR3 + SEC-DR3, tested with individual peptides (Figure S5C)

Row | Substance | IFN-γ ELISpot response of expanded CD4 T cells
63 | APGYLAITKKVAVPY [compound 151] | positive response
64 | DDPDGLHQLDGTPLTAED [compound 189, secretory hormone eluted peptide from SCG3, pool SEC DR3] | IFN-γ responses
65 | ELSAERPLNEQIAEAE [compound 186, secretory hormone eluted peptide from SCG3, pool SEC DR3] | IFN-γ responses
66 | HPQGAWKELDRNY [compound 184, secretory hormone eluted peptide from SCG1, pool SEC DR3] | IFN-γ responses
